Assay results: the NIST ThermoML archive (doi:10.1016/j.jct.2016.03.026)

Experiment: xn = mol fraction of the nth substance listed
Settings: 273.15 K, Fluid (supercritical or subcritical phases), Vibrating tube method, x1 = 0.97

O=C=O [carbon dioxide] + CO
Settings	mass density [kg/m3]
11000 kPa	978.57
11025 kPa	978.7
11050 kPa	978.82
11075 kPa	978.97
11100 kPa	979.06
11125 kPa	979.16
11150 kPa	979.3
11175 kPa	979.46
11200 kPa	979.55
11225 kPa	979.71
11250 kPa	979.8
11275 kPa	979.94
11300 kPa	980.04
11325 kPa	980.16
11350 kPa	980.29
11375 kPa	980.39
11400 kPa	980.53
11425 kPa	980.69
11450 kPa	980.78
11475 kPa	980.89
11500 kPa	981.02
11525 kPa	981.13
11550 kPa	981.26
11575 kPa	981.37
11600 kPa	981.51
11625 kPa	981.62
11650 kPa	981.75
11675 kPa	981.86
11700 kPa	982
11725 kPa	982.08
11750 kPa	982.24
11775 kPa	982.36
11800 kPa	982.49
11825 kPa	982.57
11850 kPa	982.74
11875 kPa	982.81
11900 kPa	982.98
11925 kPa	983.06
11950 kPa	983.22
11975 kPa	983.3
12000 kPa	983.47
12025 kPa	983.55
12050 kPa	983.69
12075 kPa	983.79
12100 kPa	983.94
12125 kPa	984.04
12150 kPa	984.12
12175 kPa	984.29
12200 kPa	984.37
12225 kPa	984.53
12250 kPa	984.61
12275 kPa	984.74
12300 kPa	984.86
12325 kPa	984.94
12350 kPa	985.1
12375 kPa	985.18
12400 kPa	985.35
12425 kPa	985.43
12450 kPa	985.59
12475 kPa	985.67
12500 kPa	985.78
12525 kPa	985.92
12550 kPa	986
12575 kPa	986.16
12600 kPa	986.24
12625 kPa	986.39
12650 kPa	986.49
12675 kPa	986.57
12700 kPa	986.65
12725 kPa	986.81
12750 kPa	986.89
12775 kPa	987.06
12800 kPa	987.14
12825 kPa	987.27
12850 kPa	987.38
12875 kPa	987.47
12900 kPa	987.63
12925 kPa	987.71
12950 kPa	987.8
12975 kPa	987.96
13000 kPa	988.04
13025 kPa	988.15
13050 kPa	988.28
13075 kPa	988.39
13100 kPa	988.53
13125 kPa	988.61
13150 kPa	988.76
13175 kPa	988.85
13200 kPa	988.93
13225 kPa	989.1
13250 kPa	989.18
13275 kPa	989.28
13300 kPa	989.42
13325 kPa	989.5
13350 kPa	989.67
13375 kPa	989.75
13400 kPa	989.83
13425 kPa	989.98
13450 kPa	990.07
13475 kPa	990.16
13500 kPa	990.32
13525 kPa	990.4
13550 kPa	990.48
13575 kPa	990.65
13600 kPa	990.73
13625 kPa	990.86
13650 kPa	990.97
13675 kPa	991.05
13700 kPa	991.22
13725 kPa	991.3
13750 kPa	991.4
13775 kPa	991.51
13800 kPa	991.62
13825 kPa	991.75
13850 kPa	991.87
13875 kPa	991.95
13900 kPa	992.09
13925 kPa	992.19
13950 kPa	992.27
13975 kPa	992.38
14000 kPa	992.52
14025 kPa	992.6
